Experiment: O2 evolution from [Mn2O3{Me3tacn}2](PF6)2-catalysed decomposition of H2O2 with stabilizer
Assay type: physicochemical
Experimental: A 50% strength aqueous solution of H2O2 (304 mg; 4.46 mmol) was added to 454 mg (4.46 mmol) of methyl pyruvate and to 535 mg (4.46 mmol) of glyoxylic methyl ester methyl hemiacetal, respectively. In the case of methyl pyruvate, a marked evolution of heat was discovered during the addition. After one hour, the H2O2/α-keto ester mixture was mixed with 1 ml of solvent and added to a suspension of 1.0 mg of [Mn2O3{Me3tacn}2](PF6)2 catalyst in 4 ml of solvent. The suspension was introduced into a 50 ml flask which was maintained at room temperature in a water bath. As a result of this addition, in cases where undissolved catalyst was still present, the catalyst dissolved completely.
As a comparison, a suspension of 1.0 mg of [Mn2O3{Me3tacn}2](PF6)2 catalyst in 4 ml of solvent was combined with a 50% strength aqueous solution of H2O2 (304 mg; 4.46 mmol) and 1 ml of solvent without stabilizer.
The amount of oxygen which was evolved from the decomposition of the hydrogen peroxide was determined as a function of time using a Brooks meter, which permitted measurement of the gas flow and the total amount of evolved gas.

Measured: O2 evolution V(O2) (Vmax(O2)*100%)

COC(=O)C(C)=O [methyl pyruvate]
2%: solv. methanol, t 4 min | solv. methanol, t 5 min | solv. methanol, t 10 min | solv. methanol, t 15 min | solv. methanol, t 20 min | solv. methanol, t 25 min | solv. methanol, t 30 min | solv. methanol, t 35 min | solv. methanol, t 50 min | solv. methanol, t 60 min | solv. methanol, t 70 min | solv. methanol, t 80 min
8%: solv. acetic acid, t 5 min
24%: solv. acetic acid, t 15 min | solv. acetic acid, t 20 min | solv. acetic acid, t 25 min | solv. acetic acid, t 30 min | solv. acetic acid, t 35 min | solv. acetic acid, t 50 min | solv. acetic acid, t 60 min | solv. acetic acid, t 70 min | solv. acetic acid, t 80 min
20%: solv. acetic acid, t 10 min | solv. acetone, t 70 min
35%: solv. acetonitrile, t 35 min
9%: solv. acetonitrile, t 15 min | solv. ethyl acetate, t 15 min | solv. ethyl acetate, t 20 min | solv. ethyl acetate, t 25 min | solv. ethyl acetate, t 30 min | solv. ethyl acetate, t 35 min | solv. ethyl acetate, t 50 min | solv. ethyl acetate, t 60 min | solv. ethyl acetate, t 70 min | solv. ethyl acetate, t 80 min
3%: solv. acetic acid, t 4 min | solv. acetonitrile, t 10 min
30%: solv. acetonitrile, t 30 min
28%: solv. acetone, t 80 min
25%: solv. acetonitrile, t 25 min
1%: solv. methanol, t 1 min
38%: solv. acetonitrile, t 50 min | solv. acetonitrile, t 60 min | solv. acetonitrile, t 70 min | solv. acetonitrile, t 80 min
0%: solv. acetic acid, t 1 min | solv. acetone, t 1 min | solv. acetone, t 4 min | solv. acetone, t 5 min | solv. acetone, t 10 min | solv. acetone, t 15 min | solv. acetone, t 20 min | solv. acetone, t 25 min | solv. acetone, t 30 min | solv. acetone, t 35 min | solv. acetonitrile, t 1 min | solv. acetonitrile, t 4 min | solv. acetonitrile, t 5 min | solv. ethyl acetate, t 1 min | solv. ethyl acetate, t 4 min | solv. ethyl acetate, t 5 min | solv. t-butanol, t 1 min | solv. t-butanol, t 4 min | solv. t-butanol, t 5 min | solv. t-butanol, t 10 min | solv. t-butanol, t 15 min | solv. t-butanol, t 20 min | solv. t-butanol, t 25 min | solv. t-butanol, t 30 min | solv. t-butanol, t 35 min | solv. t-butanol, t 50 min | solv. t-butanol, t 60 min | solv. t-butanol, t 70 min | solv. t-butanol, t 80 min
18%: solv. acetonitrile, t 20 min
6%: solv. acetone, t 50 min | solv. ethyl acetate, t 10 min
12%: solv. acetone, t 60 min
